Measured values from paper PMC3849266, “In Vitro and In Vivo Evaluation of a ^18F-Labeled High Affinity NOTA Conjugated Bombesin Antagonist as a PET Ligand for GRPR-Targeted Tumor Imaging” (PLoS ONE, 2013).
Entries after “also recorded” stand apart in the source; their conditions may differ. Like-named read-outs stand apart in the source and are kept apart here.

Legend:
[1] = Biodistribution and in vivo binding specificity in PC-3 tumor-bearing BALB/c nu/nu mice; conditions: mouse, iv, total radioactivity, male BALB/c nu/nu mice with PC-3 xenografts, 45 pmol i.v.; for tissue uptake at 1 h / tissue uptake at 6 h / tissue uptake at 3 h: male, BALB/c nu/nu; for tissue uptake at 1 h / tissue uptake dose at 1 h: 1 h p.i.; for tissue uptake at 6 h / tissue uptake dose at 6 h: 6 h p.i.; for tissue uptake at 3 h / tissue uptake dose at 3 h: 3 h p.i.
Text: (§1) All animal studies were planned and performed in accordance with the national legislation on the protection of laboratory animals and the Ethic Committee for Animal Research of the Uppsala University approved the study plans. Randomly divided groups of 4 mice per data point were used in all experiments. […] BALB/c nu/nu male mice with PC-3 xenografts (weight 20±1 g at the time of the experiment) were used for tumor targeting and imaging studies. The tumors were grafted by subcutaneous injection of PC-3 cells (10^7 cells/mouse) into the right hind legs 3 weeks before the experiment. The average tumor size was 0.42±0.05 g at the time of the experiment.
(§2) The mice were sacrificed at 1, 3 and 6 h p.i. to determine the uptake in tumors and other receptor-positive organs. A group of animals was co-injected with an excess of non-labeled peptide (20 nmol) and sacrificed 1 h p.i. The blood and other organs of interest were collected and treated as described above.

[2] = test system: PC-3 xenografts; assay: as above
Text: as §1, §2

[3] = Labeling stability in murine serum (SDS-PAGE); assay type: in vitro ADME; conditions: 37 °C, 1 h
Experimental: The labeling stability was evaluated using SDS-PAGE analysis (200 V constant) on NuPAGE 4–12% bis-Tris gels (Invitrogen) with the aims to check the release of fluorine-18, transchelation of [^18F]AlF to serum proteins, and cleavage of labeled protein by peptidases. […] After incubation, the samples were treated with NuPAGE® LDS Sample Buffer according to the manufacturer’s instructions and finally 0.05 nmol of sample loaded on the gel. Na^18F-sodium fluoride was loaded in a separate lane as a low molecular weight internal reference.

[4] = target: T1, murine GRPRs (Mus musculus, UniProt P21729); assay: Biodistribution and in vivo binding specificity in NMRI mice; conditions: iv, total radioactivity, male NMRI mice, 45 pmol i.v., 1 h p.i.
T1 construct: from tissue; host or cells: organs of male NMRI mice, in vivo (pancreas, stomach, small intestine and others)
Text: as §1
(§3) The mice were euthanized 1 h post-injection (p.i.) by intraperitoneal administration of Ketalar-Rompun solution (10 mg/mL Ketalar and 1 mg/mL Rompun; 20 µL of solution per gram of body weight). Blood samples were collected by cardiac puncture. The organs of interest were collected, weighed and their radioactivity was measured. The organ uptake values were expressed as a percentage of the injected dose per gram of tissue (%ID/g) except for the gastrointestinal tract (GI) and carcass, which were expressed as %ID per whole sample.

[5] = as above; conditions: mouse, iv, total radioactivity, male NMRI mice, 45 pmol i.v., 1 h p.i.
Text: as §1, §3

[6] = blood, 45 pmol, read-out: Blood uptake
[7] = blood, blocked (co-injected 20 nmol non-labeled peptide), read-out: Blood uptake
[8] = bone, 45 pmol, read-out: Bone uptake
[9] = bone, blocked (co-injected 20 nmol non-labeled peptide), read-out: Bone uptake
[10] = kidney, 45 pmol, read-out: Kidney uptake
[11] = kidney, blocked (co-injected 20 nmol non-labeled peptide), read-out: Kidney uptake
[12] = liver, 45 pmol, read-out: Liver uptake
[13] = liver, blocked (co-injected 20 nmol non-labeled peptide), read-out: Liver uptake
[14] = lung, 45 pmol, read-out: Lung uptake
[15] = lung, blocked (co-injected 20 nmol non-labeled peptide), read-out: Lung uptake
[16] = muscle, 45 pmol, read-out: Muscle uptake
[17] = muscle, blocked (co-injected 20 nmol non-labeled peptide), read-out: Muscle uptake
[18] = pancreas, 45 pmol, read-out: Pancreas uptake
[19] = pancreas, blocked (co-injected 20 nmol non-labeled peptide), read-out: Pancreas uptake
[20] = small intestine, 45 pmol, read-out: Small intestine uptake
[21] = small intestine, blocked (co-injected 20 nmol non-labeled peptide), read-out: Small intestine uptake
[22] = spleen, 45 pmol, read-out: Spleen uptake
[23] = spleen, blocked (co-injected 20 nmol non-labeled peptide), read-out: Spleen uptake
[24] = stomach, 45 pmol, read-out: Stomach uptake
[25] = stomach, blocked (co-injected 20 nmol non-labeled peptide), read-out: Stomach uptake
[26] = tumor (PC-3 xenograft), 45 pmol, read-out: Tumor uptake
[27] = carcass (whole sample), read-out: Carcass uptake
[28] = carcass (whole sample), blocked (co-injected 20 nmol non-labeled peptide), read-out: Carcass uptake
[29] = gastrointestinal tract (whole sample), read-out: GI tract uptake
[30] = gastrointestinal tract (whole sample), blocked (co-injected 20 nmol non-labeled peptide), read-out: GI tract uptake
[31] = male BALB/c nu/nu mice with PC-3 xenografts, 45 pmol i.v., 3 h p.i.

T1 sequence (P21729 whole entry): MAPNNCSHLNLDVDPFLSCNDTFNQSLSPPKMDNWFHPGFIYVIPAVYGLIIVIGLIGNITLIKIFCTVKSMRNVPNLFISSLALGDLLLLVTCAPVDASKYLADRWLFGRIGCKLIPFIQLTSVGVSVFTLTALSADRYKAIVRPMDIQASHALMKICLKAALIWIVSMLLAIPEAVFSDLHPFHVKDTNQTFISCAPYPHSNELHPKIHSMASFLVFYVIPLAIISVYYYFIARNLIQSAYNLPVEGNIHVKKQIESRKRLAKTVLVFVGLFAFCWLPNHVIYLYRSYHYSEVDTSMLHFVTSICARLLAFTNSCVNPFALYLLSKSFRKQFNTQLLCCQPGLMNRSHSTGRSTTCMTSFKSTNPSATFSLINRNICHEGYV

tissue uptake at 1 h [1, 6]: 0.48 ± 0.08 %ID/g
tissue uptake at 6 h [1, 6]: 0.023 ± 0.001 %ID/g
tissue uptake at 1 h [1, 7]: 0.4 ± 0.2 %ID/g
tissue uptake at 1 h [1, 8]: 0.3 ± 0.08 %ID/g
tissue uptake at 3 h [1, 8]: 0.17 ± 0.08 %ID/g
tissue uptake at 6 h [1, 8]: 0.22 ± 0.08 %ID/g
tissue uptake at 1 h [1, 9]: 0.2 ± 0.2 %ID/g
tissue uptake at 1 h [1, 10]: 3.6 ± 0.3 %ID/g
tissue uptake at 3 h [1, 10]: 1.74 ± 0.25 %ID/g
tissue uptake at 6 h [1, 10]: 0.27 ± 0.06 %ID/g
tissue uptake at 1 h [1, 11]: 3.9 ± 0.8 %ID/g
tissue uptake at 1 h [1, 12]: 1.9 ± 0.4 %ID/g
tissue uptake at 3 h [1, 12]: 0.45 ± 0.21 %ID/g
tissue uptake at 6 h [1, 12]: 0.1 ± 0.02 %ID/g
tissue uptake at 1 h [1, 13]: 1.6 ± 0.3 %ID/g
tissue uptake at 1 h [1, 14]: 0.36 ± 0.06 %ID/g
tissue uptake at 3 h [1, 14]: 0.2 ± 0.2 %ID/g
tissue uptake at 6 h [1, 14]: 0.11 ± 0.08 %ID/g
tissue uptake at 1 h [1, 15]: 0.4 ± 0.3 %ID/g
tissue uptake at 1 h [1, 16]: 0.1 ± 0.03 %ID/g
tissue uptake at 3 h [1, 16]: 0.03 ± 0.01 %ID/g
tissue uptake at 6 h [1, 16]: 0.02 ± 0.01 %ID/g
tissue uptake at 1 h [1, 17]: 0.09 ± 0.04 %ID/g
tissue uptake at 1 h [1, 18]: 13 ± 2 %ID/g
tissue uptake at 3 h [1, 18]: 2.7 ± 0.7 %ID/g
tissue uptake at 1 h [1, 19]: 0.3 ± 0.2 %ID/g
tissue uptake at 1 h [1, 20]: 4 ± 2 %ID/g
tissue uptake at 3 h [1, 20]: 0.88 ± 0.39 %ID/g
tissue uptake at 6 h [1, 20]: 0.13 ± 0.06 %ID/g
tissue uptake at 1 h [1, 21]: 2.6 ± 0.9 %ID/g
tissue uptake at 1 h [1, 22]: 1 ± 0.2 %ID/g
tissue uptake at 3 h [1, 22]: 0.1 ± 0.03 %ID/g
tissue uptake at 6 h [1, 22]: 0.15 ± 0.08 %ID/g
tissue uptake at 1 h [1, 23]: 0.7 ± 0.2 %ID/g
tissue uptake at 1 h [1, 24]: 2.4 ± 0.4 %ID/g
tissue uptake at 3 h [1, 24]: 1.37 ± 0.35 %ID/g
tissue uptake at 6 h [1, 24]: 0.33 ± 0.08 %ID/g
tissue uptake at 1 h [1, 25]: 0.4 ± 0.1 %ID/g
tissue uptake at 1 h [1, 26]: 6.3 ± 0.9 %ID/g
tissue uptake at 3 h [1, 26]: 5.5 ± 0.7 %ID/g
tissue uptake at 6 h [1, 26]: 2.3 ± 0.7 %ID/g
tissue uptake at 1 h ([1]; tumor (PC-3 xenograft), blocked (co-injected 20 nmol non-labeled peptide), read-out: Tumor uptake): 0.8 ± 0.2 %ID/g
tissue uptake dose at 1 h [1, 27]: 6 ± 1 %ID
tissue uptake dose at 3 h [1, 27]: 3.8 ± 0.3 %ID
tissue uptake dose at 6 h [1, 27]: 0.8 ± 0.2 %ID
tissue uptake dose at 1 h [1, 28]: 4 ± 1 %ID
tissue uptake dose at 1 h [1, 29]: 6.1 ± 0.8 %ID
tissue uptake dose at 3 h [1, 29]: 5.2 ± 0.4 %ID
tissue uptake dose at 6 h [1, 29]: 3 ± 0.1 %ID
tissue uptake dose at 1 h [1, 30]: 4.8 ± 0.3 %ID
decrease of tumor uptake by co-injection of non-labeled peptide ([2]; PC-3 xenografted mice, 1 h p.i., 20 nmol non-labeled peptide): more than 8 fold
Stomach uptake [2, 31]: 1.4±0.4 %ID/g
Tumor uptake [2, 31]: 5.53±0.75 %ID/g
tissue uptake at 1 h ([4]; blood, read-out: Blood uptake): 0.3 ± 0.1 %ID/g
tissue uptake at 1 h [4, 7]: 0.3 ± 0.1 %ID/g
tissue uptake at 1 h ([4]; bone, read-out: Bone uptake): 0.3 ± 0.2 %ID/g
tissue uptake at 1 h [4, 9]: 0.2 ± 0.1 %ID/g
tissue uptake at 1 h ([4]; kidney, read-out: Kidney uptake): 2.8 ± 0.5 %ID/g
tissue uptake at 1 h [4, 11]: 3.4 ± 0.8 %ID/g
tissue uptake at 1 h ([4]; liver, read-out: Liver uptake): 1.2 ± 0.3 %ID/g
tissue uptake at 1 h [4, 13]: 1.4 ± 0.4 %ID/g
tissue uptake at 1 h ([4]; lung, read-out: Lung uptake): 0.3 ± 0.2 %ID/g
tissue uptake at 1 h [4, 15]: 0.3 ± 0.1 %ID/g
tissue uptake at 1 h ([4]; muscle, read-out: Muscle uptake): 0.09 ± 0.03 %ID/g
tissue uptake at 1 h [4, 17]: 0.08 ± 0.03 %ID/g
tissue uptake at 1 h ([4]; pancreas, read-out: Pancreas uptake): 14 ± 6 %ID/g
tissue uptake at 1 h [4, 19]: 0.4 ± 0.1 %ID/g
tissue uptake at 1 h ([4]; small intestine, read-out: Small intestine uptake): 4 ± 2 %ID/g
tissue uptake at 1 h [4, 21]: 1.7 ± 0.7 %ID/g
tissue uptake at 1 h ([4]; spleen, read-out: Spleen uptake): 0.6 ± 0.3 %ID/g
tissue uptake at 1 h [4, 23]: 0.16 ± 0.08 %ID/g
tissue uptake at 1 h ([4]; stomach, read-out: Stomach uptake): 2 ± 1 %ID/g
tissue uptake at 1 h [4, 25]: 0.3 ± 0.1 %ID/g
tissue uptake dose at 1 h [5, 27]: 5 ± 2 %ID
tissue uptake dose at 1 h [5, 28]: 5 ± 1 %ID
tissue uptake dose at 1 h [5, 29]: 11 ± 3 %ID
tissue uptake dose at 1 h [5, 30]: 5 ± 1 %ID
SMILES: CC(C)C[C@H](NC(=O)C[C@H](O)[C@H](CC(C)C)NC(=O)[C@H](Cc1c[nH]cn1)NC(=O)CNC(=O)[C@@H](NC(=O)[C@H](C)NC(=O)[C@H](Cc1c[nH]c2ccccc12)NC(=O)[C@H](CCC(N)=O)NC(=O)[C@@H](Cc1ccccc1)NC(=O)COCCOCCNC(=O)CN1CCN(CC(=O)O)CCN(CC(=O)O)CC1)C(C)C)C(N)=O [[^18F]AlF-NOTA-P2-RM26]
stability in murine serum [3]: stable; also recorded: single radioactivity peak
